Data reported in patent US12403144B2, “HECT E3 ligase inhibitors and uses thereof” (IFOM FONDAZIONE ISTITUTO FIRC DI ONCOLOGIA MOLECOLARE, priority 2019, dated 2025).
Counter-ions that a name gives are not always drawn.

Molecular target: T1, untagged HECT of NEDD4 wild-type (WT) (E3 ligase) (Homo sapiens, UniProt P46934)
T1 construct: untagged HECT of NEDD4 wild-type (WT) (E3 ligase); made in house
T1 sequence (P46934 519-900 isoform P46934-4 limits assumed): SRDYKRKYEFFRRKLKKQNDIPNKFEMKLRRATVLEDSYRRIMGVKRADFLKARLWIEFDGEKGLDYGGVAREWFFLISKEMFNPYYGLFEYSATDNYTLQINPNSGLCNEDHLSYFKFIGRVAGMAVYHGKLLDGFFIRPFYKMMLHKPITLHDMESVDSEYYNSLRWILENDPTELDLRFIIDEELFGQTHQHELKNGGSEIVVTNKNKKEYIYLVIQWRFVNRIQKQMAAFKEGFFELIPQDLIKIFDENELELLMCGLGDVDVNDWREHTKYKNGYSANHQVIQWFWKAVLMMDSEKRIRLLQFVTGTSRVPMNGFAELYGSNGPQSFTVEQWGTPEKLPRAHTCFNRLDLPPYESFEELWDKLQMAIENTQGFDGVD
Test: In vitro ubiquitination assay TR-FRET based (self-ubiquitination of NEDD4)
Type: biochemical
Details: at 11 μM; pre-incubated for 1 hour; AUC of 120 minutes kinetic; read-out: percentages of inhibition (NEDD4)
Source text: FIG. 1: TR-FRET kinetic assay performed with compound 12. […] Reactions were initiated with the addition of ATP. As labeled ubiquitin molecules become incorporated into chains they come into close proximity, resulting in energy transfer and increased signal to background detection. The activity of the enzyme is continuously and real time detected and it is expressed as % of signal/background during the time.
In order to quantitatively measure the self-ubiquitination process of the E3 HECT ligase NEDD4 the inventors employed a TR-FRET based assay. TR-FRET technology exploits the long-lasting emission of lanthanide fluorescence to interpose a short time-delay between FRET donor excitation and emission. This phenomenon enables to isolate real fluorescent signals from short-lived background emissions, thus reducing possible interference from compounds.
In the present study, elongation of the ubiqutin chain by NEDD4 is measured by adding bacterially expressed E1, His-tagged UBE2D3 (E2) and untagged HECT of NEDD4 wild-type (WT) (E3 ligase) (named in FIG. 1 as WT) enzymes to a mixture of Eu-cryptate ubiquitin, Cy5-ubiquitin and wild-type ubiquitin, combined in a ratio optimized for TR-FRET based conjugation (100×TRF-Ubiquitin Mix, SBB-TR0051). […] Bacterially expressed E1, His-tagged UBE2D3 (E2), untagged HECT NEDD4 (E3 ligase) WT and NEDD4 C/A enzymes were produced and purified as reported in E. Maspero et al. Methods Mol Biol. 1449:153-60 (2016).
Enzymatic incorporation of the labeled TRF-Ubiquitin mix into chains leads to an increase in fluorescence emission at 665 nm (emission of the acceptor Cy5-Ubiquitin, Emacceptor) and decrease at emission wavelength 620 nm (emission of the donor Eu-cryptate Ubiquitin, Emdonor).
The assay was performed in a 384-well plate format (Optiplate, Perkin Elmer, #6007290) on an automated liquid-handler (Hamilton STAR, Hamilton Robotics, Switzerland).
All compounds were dissolved in 100% DMSO and serially diluted in 96-well plates (from 100 μM to 0.005 μM).
Briefly, all reagents were thawed and kept on ice. A master mix containing E1, E2, E3 and TRF-Ubiquitin Mix (SBB-TR0051) diluted in the assay buffer (Tris-HCl pH 7.6 25 mM, NaCl 100 mM, MgCl2 5 mM and Tween 0.01%) is prepared and 50 μl/well is dispensed in a 384 well plate. 3 μl of compounds dissolved in DMSO in the above-indicated concentration range were added and pre-incubated for 1 hour. Final E1, E2 and E3 concentrations in the assay buffer (Tris-HCl pH 7.6 25 mM, NaCl 100 mM, MgCl2 5 mM and Tween 0.01%) were 30, 350 and 50 nanomolars, respectively. The reaction was initiated with the addition of ATP (22 μl of 2 mM ATP, JenaBioscience, NU-1010) and was allowed to proceed for 120 minutes, measuring fluorescence emission at 665 nm and 620 nm in real-time on an EnSpire microplate reader (Perkin Elmer).
Kinetic raw data were analyzed by Area Under the Curve (AUC) method using Prism GraphPad software.
% signal/background corresponds to the following equation: (Experimental signal−Background signal)/Background signal×100%
Experimental signal corresponds to the signal obtained by the enzymatic reaction in presence of the vehicle (DMSO) and/or the different compound concentrations. Background signal corresponds to the signal obtained by the enzymatic reaction in absence of ATP.
The relative potency of the compounds was evaluated by dose-response curves following the enzymatic reaction of HECT NEDD4 WT in real time for 120 minutes.
Percentage of inhibition is then determined by the equation: % inhibition=100×[1−(X)/(MAX)],
where MAX correspond to AUC of the vehicle (DMSO) treated enzyme, and X corresponds to the AUC of the compound treated enzyme.

`CC(=O)/C=C/CN(C)CCCN1c2ccccc2CCc2ccc(Cl)cc21` [Compound 7, (E)-5-[3-(3-chloro-10,11-dihydro-5H-dibenzo[b,f]azepin-5-yl)propyl-methyl-amino]pent-3-en-2-one maleate] and `CC(=O)/C=C/CN(C)CCCCN1c2ccccc2CCc2ccc(Cl)cc21` [Compound 10, (E)-5-[4-(3-chloro-10,11-dihydro-5H-dibenzo[b,f]azepin-5-yl)butyl-methyl-amino]pent-3-en-2-one maleate] cannot be ordered by inhibition at 11 µM: > 50% for the first, > 50% for the second.

Going from `CCOC(=O)/C=C/CNCCCCN1c2ccccc2C(=O)N(CCCO)c2ccc(Cl)cc21` [Compound 51, Ethyl (E)-4-({4-[7-chloro-10-(3-hydroxypropyl)-11-oxo-10,11-dihydro-5H-dibenzo[b,e][1,4]diazepin-5-yl]butyl}amino)but-2-enoate maleate] to `CCOC(=O)/C=C/CNCCCN1c2ccccc2C(=O)N(CCO)c2ccc(Cl)cc21` [Compound 55, Ethyl (E)-4-({3-[7-chloro-10-(2-hydroxyethyl)-11-oxo-10,11-dihydro-5H-dibenzo[b,e][1,4]diazepin-5-yl]propyl}amino)but-2-enoate maleate], the inhibition at 11 µM falls from > 50% to < 30%.

`CCOC(=O)/C=C/CNCCCCN1c2cc(Cl)ccc2COc2ccccc21` [Compound 36, Ethyl (E)-4-{4-[3-chlorodibenzo[b,e][1,4]oxazepin-5(11H)-yl]butylamino}but-2-enoate maleate] and `COC(=O)/C=C/CN(C)CCCCN1c2cc(Cl)ccc2COc2ccccc21` [Compound 68, Methyl (E)-4-[4-(3-chlorodibenzo[b,e][1,4]oxazepin-5(11H)-yl)butyl-methyl-amino]but-2-enoate] cannot be ordered by inhibition at 11 µM: > 50% for the first, > 50% for the second.

`CCOC(=O)/C=C/CNCCCCN1c2ccccc2CCc2cc(O)c(Cl)cc21` [Compound 40, Ethyl (E)-4-[4-(3-Chloro-2-hydroxy-10,11-dihydro-dibenzo[b,f]azepin-5-yl)-butylamino]-but-2-enoate maleate] and `CCOC(=O)/C=C/CNCCCCN1c2ccc(OC)cc2CCc2ccc(Cl)cc21` [Compound 67, Ethyl (E)-4-[4-(7-Chloro-2-methoxy-10,11-dihydro-dibenzo[b,f]azepin-5-yl)-butylamino]-but-2-enoate maleate] cannot be ordered by inhibition at 11 µM: > 50% for the first, > 50% for the second.

`CN(C/C=C/C(=O)OCCOCCOCCOCCOCCOCCOCCOCCNC(=O)CCCC[C@@H]1SC[C@@H]2NC(=O)N[C@@H]21)CCCCN1c2ccccc2CCc2ccc(Cl)cc21` [Compound 96, 2-(2-{2-[2-(2-{2-[2-(2-[5-((3aS,4S,6aR)-2-Oxo-hexahydro-thieno[3,4-d]imidazol-4-yl)-pentanoylamino]-ethoxy)-ethoxy]-ethoxy}-ethoxy)-ethoxy]-ethoxy}-ethoxy)-ethyl (E)-4-{[4-(3-chloro-10,11-dihydro-dibenzo[b,f]azepin-5-yl)-butyl]-methyl-amino} but-2-enoate] and `CN(C/C=C/C#N)CCCCN1c2ccc(OCCOCc3cn(CCOCCOCCOCCNC(=O)CCCC[C@@H]4SC[C@@H]5NC(=O)N[C@@H]54)nn3)cc2CCc2ccc(Cl)cc21` [Compound 99, 5-((3aS,4S,6aR)-2-Oxo-hexahydro-thieno[3,4-d]imidazol-4-yl)-(2-{2-[2-(2-{4-[2-(7-chloro-5-{4-[((E)-3-cyano-allyl)-methyl-amino]-butyl}-10,11-dihydro-5H-dibenzo[b,f]azepin-2-yloxy)-ethoxymethyl]-[1,2,3]triazol-1-yl}-ethoxy)-ethoxy]-ethoxy}-ethyl)pentanamide] cannot be ordered by inhibition at 11 µM: > 50% for the first, > 50% for the second.

`CCOC(=O)/C=C/CNCCCN1c2cc(Cl)ccc2C(=O)N(CCCO)c2ccccc21` [Compound 49, Ethyl (E)-4-({3-[3-chloro-10-(3-hydroxypropyl)-11-oxo-10,11-dihydro-5H-dibenzo[b,e][1,4]diazepin-5-yl]propyl}amino)but-2-enoate maleate] and `CCOC(=O)/C=C/CNCCCN1c2cc(Cl)ccc2C(=O)N(CCO)c2ccccc21` [Compound 47, Ethyl (E)-4-({3-[3-chloro-10-(2-hydroxyethyl)-11-oxo-10,11-dihydro-5H-dibenzo[b,e][1,4]diazepin-5-yl]propyl}amino)but-2-enoate maleate] cannot be ordered by inhibition at 11 µM: > 50% for the first, > 50% for the second.

`C#CCOCCOC(=O)/C=C/CNCCCCN1c2ccccc2CCc2ccc(Cl)cc21` [Compound 92, 2-Prop-2-ynyloxy-ethyl (E)-4-[4-(3-chloro-10,11-dihydro-5H-dibenzo[b,f]azepin-5-yl)butylamino]but-2-enoate maleate] and `N#C/C=C/CNCCCN1c2ccccc2CCc2ccc(Cl)cc21` [Compound 22, (E)-4-{[3-(3-chloro-10,11-dihydro-5H-dibenzo[b,f]azepin-5-yl)propyl]amino}but-2-enenitrile hydrochloride] cannot be ordered by inhibition at 11 µM: > 50% for the first, > 50% for the second.

Compared with `CCOC(=O)/C=C/CNCCCN1c2cc(Cl)ccc2CCc2cnn(C)c21` [Compound 30, Ethyl (E)-4-{[3-(8-chloro-1-methyl-4,5-dihydropyrazolo-[3,4-b][1]-benzazepin-10(1H)-yl)propyl]amino}but-2-enoate maleate], `CCOC(=O)/C=C/CNCCC(=O)N1c2ccccc2CCc2ccc(Cl)cc21` [Compound 33, Ethyl (E)-4-{[3-(3-chloro-10,11-dihydro-5H-dibenzo[b,f]azepin-5-yl)-3-oxo-propyl]amino}but-2-enoate maleate] is lower in inhibition at 11 µM: > 50% for the first, < 30% for the second.

`O=C(/C=C/CNCCCCN1c2ccccc2CCc2ccc(Cl)cc21)NOc1ccccc1` [Compound 82, (E)-4-[4-(3-chloro-10,11-dihydro-5H-dibenzo[b,f]azepin-5-yl)butylamino]-N-phenoxy-but-2-enamide maleate] and `CN(C/C=C/C(=O)c1ccccc1)CCCN1c2ccccc2CCc2ccc(Cl)cc21` [Compound 8, (E)-4-[3-(3-chloro-10,11-dihydro-5H-dibenzo[b,f]azepin-5-yl)propyl-methyl-amino]-1-phenyl-but-2-en-1-one] cannot be ordered by inhibition at 11 µM: > 50% for the first, > 50% for the second.

`CCOC(=O)/C=C/CNCCCCN1c2cc(Cl)ccc2C(=O)N(CCO)c2ccccc21` [Compound 46, Ethyl (E)-4-({4-[3-chloro-10-(2-hydroxyethyl)-11-oxo-10,11-dihydro-5H-dibenzo[b,e][1,4]diazepin-5-yl]butyl}amino)but-2-enoate maleate] and `CCOC(=O)/C=C/CNCCCN1c2ccccc2C(=O)N(C)c2ccc(Cl)cc21` [Compound 28, Ethyl (E)-4-{[3-(7-chloro-10-methyl-11-oxo-10,11-dihydro-5H-dibenzo[b,e][1,4]diazepin-5-yl)propyl]amino}but-2-enoate maleate] cannot be ordered by inhibition at 11 µM: > 50% for the first, > 50% for the second.

`CCOC(=O)/C=C/CN(CC)CCCCN1c2ccccc2CCc2ccc(Cl)cc21` [Compound 64, Ethyl (E)-4-{[4-(3-chloro-10,11-dihydro-dibenzo[b,f]azepin-5-yl)butyl]-ethyl-amino}but-2-enoate maleate] was tested, and the inhibition at 11 µM was > 50%.
